According to patent US20210393745A1, “OLIGOMER EXTENDED INSULIN-FC CONJUGATES AND THEIR MEDICAL USE” (Novo Nordisk A/S, priority 2018, published 2021):

What was measured:
[1] = target: T1, membrane-associated human IGF-1R (Homo sapiens, UniProt P08069); test: IGF-1 receptor affinity on membrane associated receptors (SPA); assay type: binding; settings: membrane-associated IGF-1R, relative to human insulin
T1 construct: expressed in transfected cells; host or cells: BHK cells, pZem219B vector, plasma membrane preparation
T1 sequence (P08069 31-736 limits assumed): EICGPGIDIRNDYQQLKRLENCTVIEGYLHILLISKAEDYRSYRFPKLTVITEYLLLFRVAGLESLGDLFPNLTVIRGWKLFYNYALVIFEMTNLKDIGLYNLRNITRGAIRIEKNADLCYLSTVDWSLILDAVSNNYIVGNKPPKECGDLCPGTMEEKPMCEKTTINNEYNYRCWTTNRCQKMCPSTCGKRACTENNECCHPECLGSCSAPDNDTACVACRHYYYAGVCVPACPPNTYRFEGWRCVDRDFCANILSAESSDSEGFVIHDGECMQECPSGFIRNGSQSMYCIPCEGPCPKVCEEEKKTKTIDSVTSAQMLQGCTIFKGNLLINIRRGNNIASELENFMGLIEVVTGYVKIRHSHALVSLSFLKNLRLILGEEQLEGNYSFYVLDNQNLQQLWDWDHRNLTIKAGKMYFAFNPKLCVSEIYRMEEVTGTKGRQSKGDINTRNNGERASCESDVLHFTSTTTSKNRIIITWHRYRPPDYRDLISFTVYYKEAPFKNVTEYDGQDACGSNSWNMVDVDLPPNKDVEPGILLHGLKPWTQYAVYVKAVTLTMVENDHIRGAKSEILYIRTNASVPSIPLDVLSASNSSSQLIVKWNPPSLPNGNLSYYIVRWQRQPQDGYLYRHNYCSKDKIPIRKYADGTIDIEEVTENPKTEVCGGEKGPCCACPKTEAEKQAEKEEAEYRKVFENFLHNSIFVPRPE
T1 sequence (P08069 741-1367 partner limits assumed): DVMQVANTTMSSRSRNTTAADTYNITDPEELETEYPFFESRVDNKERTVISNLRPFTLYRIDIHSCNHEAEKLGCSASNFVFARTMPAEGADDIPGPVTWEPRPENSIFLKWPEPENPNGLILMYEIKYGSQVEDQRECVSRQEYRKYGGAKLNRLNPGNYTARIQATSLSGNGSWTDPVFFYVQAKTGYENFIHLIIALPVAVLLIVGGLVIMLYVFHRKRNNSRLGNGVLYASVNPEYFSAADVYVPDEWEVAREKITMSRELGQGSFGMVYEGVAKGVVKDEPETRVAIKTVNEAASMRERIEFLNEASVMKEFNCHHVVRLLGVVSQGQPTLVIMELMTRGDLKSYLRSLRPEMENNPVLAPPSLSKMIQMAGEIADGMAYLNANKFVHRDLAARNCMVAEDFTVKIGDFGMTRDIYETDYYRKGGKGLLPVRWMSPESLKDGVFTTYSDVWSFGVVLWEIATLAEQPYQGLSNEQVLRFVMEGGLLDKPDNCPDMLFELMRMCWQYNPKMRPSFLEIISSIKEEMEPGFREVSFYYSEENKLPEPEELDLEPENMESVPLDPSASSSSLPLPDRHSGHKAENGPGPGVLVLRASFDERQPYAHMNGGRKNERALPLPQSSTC
Method: Membrane-associated human IR and IGF-1R are purified from BHK cells stably transfected with the pZem219B vector containing either the human IR-A, IR-B or IGF-IR insert. BHK cells are harvested and homogenized in ice-cold buffer (25 mM HEPES pH 7.4, 25 mM CaCl2 and 1 mM MgCl2, 250 mg/L bacitracin, 0.1 mM Pefablock). The homogenates are layered on a 41% (w/v) sucrose cushion and centrifuged for 75 minutes at 95000 g at 4° C. The plasma membranes are collected, diluted 1:5 with buffer (as above) and centrifuged again for 45 minutes at 40000 g at 4° C. The pellets are resuspended in a minimal volume of buffer and drawn through a needle (size 23) three times before storage at −80° C. until usage. The relative binding affinity for either of the membrane-associated human IR-A, IR-B or IGF-1R is determined by competition binding in a SPA setup. IR assays are performed in duplicate in 96-well OptiPlates (Perkin-Elmer Life Sciences). Membrane protein is incubated with gentle agitation for 150 minutes at 25° C. with 50 pM [^125IA14Y]-human insulin in a total volume of […] assay buffer (50 mM HEPES, 150 mM NaCl, 5 mM MgSO4, 0.01% Triton X-100, 0.1% (w/v) HSA (Sigma A1887), Complete EDTA-free protease inhibitors), 50 μg of wheat germ agglutinate (WGA)-coated PVT microspheres (GE Healthcare) and increasing concentrations of ligand. Assays are terminated by centrifugation of the plate at 2000 rpm for 2 minutes and bound radioactivity quantified by counting on a TopCount NXT (Perkin-Elmer Life Sciences).
IGF-1R assays are conducted essentially as for the IR binding assays except that membrane-associated IGF-1R and 50 pM [^125I-Tyr31]-human IGF-1 were employed.

primary rat adipocytes = test: Lipogenesis in rat adipocytes; assay type: cell-based; settings: relative to human insulin
Method: As a measure of in vitro potency of the insulin conjugatess of the invention, lipogenesis can be used. Primary rat adipocytes are isolated from the epididymale fat pads and incubated with 3H-glucose in buffer containing e.g. 0.1% fat free HSA and either standard (human insulin, HI) or insulin conjugates of the invention. The labelled glucose is converted into extractable lipids in a dose dependent way, resulting in full dose response curves. The result is expressed as relative potency (%) with 95% confidence limits of insulin of the invention compared to standard (HI).

hFcRn ectodomain = target: T2, hFcRn ectodomain (Homo sapiens, UniProt P55899); test: SPR analysis of the binding of hFcRn ECD; settings: pH 6.0, 25° C., steady-state fitting; read-out: Kn (μM), binding of hFcRn ECD
T2 construct: the hFcRn ectodomain diluted at 4000 nM with 2-fold serial dilutions was injected
T2 sequence (P55899 24-297 limits assumed): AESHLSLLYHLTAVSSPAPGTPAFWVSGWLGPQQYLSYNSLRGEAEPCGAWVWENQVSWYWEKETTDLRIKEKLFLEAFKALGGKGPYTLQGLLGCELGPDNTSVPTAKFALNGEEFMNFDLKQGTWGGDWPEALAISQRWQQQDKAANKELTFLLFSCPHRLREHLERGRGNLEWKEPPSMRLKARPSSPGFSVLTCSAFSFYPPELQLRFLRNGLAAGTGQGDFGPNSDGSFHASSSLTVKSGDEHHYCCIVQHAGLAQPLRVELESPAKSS
T2 sequence (P61769 21-119 partner): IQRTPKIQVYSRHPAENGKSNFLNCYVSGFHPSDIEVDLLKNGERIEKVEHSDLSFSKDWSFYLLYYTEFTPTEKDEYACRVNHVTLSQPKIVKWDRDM
Method: First, the three Insulin-Fc samples diluted at 10 ug/ml and the wild-type hIgG4 Fc (produced in HEK293 cells, i.e. glycosylated) diluted at 30 ug/ml in 10 mM sodium acetate (pH 4.5) (GE Healthcare, catalogue #BR100350) were immobilized on a CMD50L sensor chip (XanTec Bioanalytics GmbH) at spot 2 or 4 at 70-90 RU in each used flow cell via amine coupling with 1×HBS-EP+ (pH 7.4) (GE Healthcare, catalogue #BR-1006-69) used as the running buffer. The wild-type hIgG4 Fc was used as the control sample. In each used flow cell, spots 2, 3 and 4 were activated by 100 mM N-hydroxysuccinimide (NHS) and 400 mM N-ethyl-N′-dimethylaminopropyl carbodiimide hydrochloride (EDC) mixed at equal volume before the immobilization and blocked by 1 M ethanolamine hydrochloride-NaOH (pH 8.5) after the immobilization. NHS, EDC and ethanolamine were obtained from the Amine Coupling Kit, type 2 (GE Healthcare, catalogue #BR100633).
Next, the hFcRn ectodomain diluted at 4000 nM with 2-fold serial dilutions was injected through each used flow cell for 60 sec to allow for binding of the hFcRn ectodomain to the Insulin-Fc conjugates and wild-type hIgG4 Fc samples immobilized on the sensor chip, followed by dissociation for 180 sec. 1×PBS-EP+ (pH 6.0) was used as the dilution buffer for the hFcRn ectodomain and the running buffer in each binding cycle at the flow rate of 30 ul/min. After each binding cycle, the sensor chip was regenerated with a 60 sec injection of 1×PBS-EP+ (pH 7.4) at the flow rate of 30 ul/min. The 1×PBS-EP+ (pH 7.4) buffer was prepared by diluting 0.5 M EDTA (pH 8.0) (Invitrogen, catalogue #15575038) at 3 mM into 1×PBS-P+ (GE Healthcare, catalogue #28995084). The 1×PBS-EP+ (pH 6.0) buffer was prepared by adjusting the pH of the 1×PBS-EP+ buffer from 7.4 to 6.0 using ˜10 M HCl. The affinities (equilibrium dissociation constants, KD) were determined via steady-state fitting of the binding curves using the 1:1 binding model in Biacore 4000 Evaluation Software 1.0 (GE Healthcare).

[2] = Stability study: purity by anionic exchange chromatography; assay type: physicochemical; settings: purity %(5° C.) − purity %(30° C.), 30 μM, pH 7.4
Method: Samples for stability studies were prepared by weighing out 8-10 mg freeze-dried material. The freeze-dried material was solubilized to […] in a premade solution A (5 mM phophate (pH 7.4), 140 mM NaCl and 70 ppm polysorbate 20). Protein concentration was determined using absorbance at 280 nm using a Nanodrop 2000 (Thermo Fisher Scientific Inc.) and theoretical extinction coefficients. Dilution into solution A was done to reach a final concentration of 30 μM.
Anionic exchange chromatography was performed on an Ultra-Performance Liquid Chromatography system (Waters Acquity H-Class) equipped with a fluorescence detector (Waters Acquity FLR Detector). A Bio SAX column with dimensions 50×4.6 mm from Agilent, kept at 30° C., was used in gradient elution mode. Mobile phase A was 5/95 (v/v), acetonitrile/water with 25 mM BIS-TRIS propane, pH 7.3 and mobile phase B was 5/95 (v/v), acetonitrile/water with 25 mM BIS-TRIS propane and 350 mM NaCl, pH 7.3. Injection volume was 3 μL. The flow rate was kept at 0.5 mL/min with a linear gradient from 10 to 47% B in 3 min followed by a linear gradient from 47 to 55% B in 30 min. Peaks were detected with an emission wavelength of […] and data processing is performed with the EMPOWER 3 software from Waters. Samples were analysed for purity as percent API in relation to all other species.
Reported as Δ purity %=purity %(5° C.)−purity % (30° C.).
Stability of Fc-insulin analogues was evaluated by comparing purity from anion exchange chromatography and formation of high molecular weight products (HMWP) at 5° C. (control) versus 30° C. (heat induced stress). […] The amount of HMWP was decreased by 0.5-2% in the stressed sample versus the control, i.e. some aggregated material has disassociated during incubation at 30° C.

| Substance | IGF1R mem Rel. aff. (%) [1] [%] | Lipogenesis Rel. pot. (%) (primary rat adipocytes) | Kd (hFcRn ectodomain) [µM] | Δ purity [2] [%] |
| --- | --- | --- | --- | --- |
| (A14E, A21G, A22(GQEP)12, A70K^, A71P, B25H, B29R, desB30 human insulin)/(226A, 227G, 228P, 234A, 235K, 297E, 315Q, 384Q, des447 hIgG4-Fc(226-447))3,5-bis[(2-acetyl)amino]benzoyl Conjugate [Example 5.1] | 0.91 | 2.86 | 1.5 | 3.3 |
| (A14E, A21G, A22(GQEP)11, A66G, A67Q, A68E, A69K^, A70P, B16H, B25H, B29R, desB30 human insulin)/(226A, 227G, 228P, 234A, 235K, 297E, 315Q, 384Q, des447 hIgG4-Fc(226-447))3,5-bis[(2-acetyl)amino]benzoyl Conjugate [Example 5.2] | 0.10 | 1.14 | 1.6 | 6.7 |
